Key:
Mixed Bacteria = assay: Inoculation test of preserved cream formulation with mixed bacteria, surviving organisms counted; format: cell-based; conditions: control: IPBC 25 ppm, PhOH 0 ppm in cream
Mixed Fungi = assay: Inoculation test of preserved cream formulation with mixed fungi, surviving organisms counted; format: cell-based; conditions: control: IPBC 25 ppm, PhOH 0 ppm in cream
Description: A batch of a cream formulation comprising an oil-in-water emulsion containing 7.5 wt % Crodex A (an emulsifying wax ex-Croda Chemicals), 5.0 wt % propylene glycol and 87.5 wt % sterile water was prepared using a homogenising mixer.
Portions of the cream formulation were admixed with a preservative system comprising iodopropynyl butyl carbamate and phenoxyethanol at varying weight ratios of iodopropynyl butyl carbamate to phenoxyethanol. In each case the content of the iodopropynyl butyl carbamate in the cream formulation was kept constant at a level of 0.0025 wt % with respect of the total weight of the formulation.
Each portion of the formulation was divided into two. One specimen was inoculated with 7.5×10^7 mixed bacteria per g of cream. The other specimen was inoculated with 2.4×10^6 mixed fungi per g of cream.
For each specimen the number of surviving organisms was determined at 0 hours, […] and 72 hours after inoculation.

For iodopropynyl butyl carbamate [IPBC], the “organisms surviving, Mixed Bacteria, 0 Hours” value (Mixed Bacteria; 0 Hours) was “TNTC”, the “organisms surviving, Mixed Bacteria, 24 Hours” value (Mixed Bacteria; 24 Hours) was 1.8 × 10^6 and the “organisms surviving, Mixed Bacteria, 72 Hours” value (Mixed Bacteria; 72 Hours) was 2.9 × 10^5. For the same substance, the “organisms surviving, Mixed Fungi, 0 Hours” value (Mixed Fungi; 0 Hours) was 8 × 10^5, the “organisms surviving, Mixed Fungi, 24 Hours” value (Mixed Fungi; 24 Hours) was 1.2 × 10^5 and the “organisms surviving, Mixed Fungi, 72 Hours” value (Mixed Fungi; 72 Hours) was 5.2 × 10^4.

— patent US20010043936A1, “CHEMICAL COMPOSITION” (priority 1997, published 2001)
